Experimental data: publication PMC4556614 (PLoS ONE, 2015)
Where two headings read alike, the source gives them in different places.

How the values were obtained:
OCT2 [1] = molecular target: T1, OCT2 (Homo sapiens, UniProt O15244); test: Inhibition of OCT2-mediated [3H]MPP+ uptake in HEK-OCT2 cells; conditions: for inhibition at 3 min, 20 µM / inhibition at 3 min, 200 µM: pH 7.3, probe [3H]MPP+, 50 µM
Procedure: (§1) For the transport assays HEK cell lines stably transfected with human OCT2 (HEK-OCT2) or the vector only (HEK-VC) were used. The HEK-OCT2 cell line was established and characterized previously. HEK-OCT2 and HEK-VC cells were seeded in poly-D-lysine (Sigma Aldrich, Taufkirchen, Germany) coated 48-well-plates at a density of 1.2 x 10^5 cells/well. […] Uptake was stopped by washing the cells three times with ice-cold uptake buffer. Afterwards, cells were lysed with 5 mM Tris buffer (pH 7.3) containing 0.1% Triton X-100. The intracellular accumulation of radioactivity was determined by liquid scintillation counting (PerkinElmer, Rodgau-Jügesheim, Germany) and protein concentration of each lysate was measured with bicinchonic acid assay (BCA Protein Assay Kit, Thermo Fisher Scientific, Waltham, MA, USA). We performed two to eight experiments each on at least two separate days, i.e., n = 4–16.

OCT2 [2] = molecular target: T1, OCT2; test: in vitro; conditions: for inhibition at 3 min, 20 µM / inhibition at 3 min, 200 µM: pH 7.3, probe [14C]metformin, 1000 µM, metformin 1000 μM, net uptake HEK-OCT2 minus HEK-VC; for inhibition at 3 min, 20 µM: % Inhibition of OCT2-dependent MF uptake at 20 µM (mean ± SEM), test drug 20 µM; for inhibition at 3 min, 200 µM: % Inhibition of OCT2-dependent MF uptake at 200 µM (mean ± SEM), test drug 200 µM
Procedure: as §1
Experimental half-maximal inhibitory concentrations (IC50 values) were measured as the substrate uptake in the presence of increasing concentrations of test drugs. These experiments were performed as described above (three experiments each on two separate days, i.e., n = 6). IC50 values were calculated with GraphPad Prism 5.0 (GraphPad Software, San Diego, CA, USA). IC50 was estimated by a sigmoidal inhibition model and was fit to the equation V = V 0 / (1 + (I / IC50 ) ^n ) by nonlinear regression. V is the net uptake in the presence of the inhibitor, V 0 is the net uptake in the absence of the inhibitor, I is the concentration of the inhibitor and n is the slope.

[3] = test drug 20 µM, MPP+ 50 μM, 3 min, net uptake HEK-OCT2 minus HEK-VC
[4] = test drug 200 µM, MPP+ 50 μM, 3 min, net uptake HEK-OCT2 minus HEK-VC

T1 sequence (O15244 whole entry): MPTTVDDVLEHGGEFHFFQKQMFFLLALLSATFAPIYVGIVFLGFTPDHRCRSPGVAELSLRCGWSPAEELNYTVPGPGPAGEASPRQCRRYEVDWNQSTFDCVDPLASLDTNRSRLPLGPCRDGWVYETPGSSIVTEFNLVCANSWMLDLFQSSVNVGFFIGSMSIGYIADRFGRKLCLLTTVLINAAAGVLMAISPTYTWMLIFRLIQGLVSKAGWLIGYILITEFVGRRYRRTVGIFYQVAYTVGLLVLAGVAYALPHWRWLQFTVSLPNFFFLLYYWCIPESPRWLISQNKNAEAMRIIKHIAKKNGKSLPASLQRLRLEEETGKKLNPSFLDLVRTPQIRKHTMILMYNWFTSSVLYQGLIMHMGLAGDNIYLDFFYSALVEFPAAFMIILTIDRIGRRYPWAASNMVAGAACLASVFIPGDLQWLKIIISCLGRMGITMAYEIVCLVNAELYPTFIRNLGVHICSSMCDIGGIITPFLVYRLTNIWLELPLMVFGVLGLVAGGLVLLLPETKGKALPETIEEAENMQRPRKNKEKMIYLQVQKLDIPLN

Row | SMILES | % Inhibition of OCT2-dependent MPP+ uptake at 20 µM (mean ± SEM) (OCT2 [1]; [3]) | % Inhibition of OCT2-dependent MPP+ uptake at 200 µM (mean ± SEM) (OCT2 [1]; [4]) | % Inhibition of OCT2-dependent MF uptake at 20 µM (mean ± SEM) (OCT2 [2]; human, pH 7.3) | % Inhibition of OCT2-dependent MF uptake at 200 µM (mean ± SEM) (OCT2 [2]; human, pH 7.3) | other results
1 | NCCCC[C@H](N[C@@H](CCc1ccccc1)C(=O)O)C(=O)N1CCC[C@H]1C(=O)O [Lisinopril] | 16.0 ± 9.0% | 9.8 ± 11.8% | -10.3 ± 12.9 | 2.9 ± 9.0 | 
2 | [Li] [Lithium] | -28.4 ± 7.5% | -36.7 ± 9.7% |  |  | % Inhibition of OCT2-dependent MF uptake at 20 µM (mean ± SEM) (OCT2 [2]): -15.2 ± 7.9; % Inhibition of OCT2-dependent MF uptake at 200 µM (mean ± SEM) (OCT2 [2]): -14.7 ± 6.8
3 | O=C1Nc2ccc(Cl)cc2C(c2ccccc2Cl)=NC1O (centres unmarked) [Lorazepam] | 0.3 ± 5.1% | 17.7 ± 7.3% | 32.0 ± 2.2 | 96.5 ± 1.0 | 
4 | CN1C(=O)C(O)N=C(c2ccccc2Cl)c2cc(Cl)ccc21 (centres unmarked) [Lormetazepam] |  |  | 77.0 ± 0.6 | 92.4 ± 0.5 | % Inhibition of OCT2-dependent MPP+ uptake at 20 µM (mean ± SEM) (OCT2 [1]; human, pH 7.3): 47.8 ± 8.4; % Inhibition of OCT2-dependent MPP+ uptake at 200 µM (mean ± SEM) (OCT2 [1]; human, pH 7.3): 69.8 ± 5.3
5 | CCCCc1nc(Cl)c(CO)n1Cc1ccc(-c2ccccc2-c2nn[nH]n2)cc1 [Losartan] | -41.8 ± 8.1% | -59.5 ± 6.1% | -9.3 ± 10.4 | 7.4 ± 8.2 | 
6 | CC1CCN(CCCC(=O)c2ccc(F)cc2)CC1 [Melperone] | 8.6 ± 10.1% | 69.7 ± 3.8% | 75.0 ± 3.4 | 94.9 ± 4.2 | 
7 | CC12CC3CC(C)(C1)CC(N)(C3)C2 [Memantine] | 20.6 ± 8.6% | 54.0 ± 7.0% | 54.0 ± 2.1 | 93.9 ± 0.6 | 
8 | Nc1ccc(O)c(C(=O)O)c1 [Mesalazine] | -51.3 ± 6.1% | -68.0 ± 8.5% | 21.6 ± 11.1 | 59.8 ± 6.7 | 
9 | Cc1c(N(C)CS(=O)(=O)O)c(=O)n(-c2ccccc2)n1C [Metamizole] | -31.6 ± 6.0% | -39.1 ± 5.1% | -4.8 ± 6.4 | 8.4 ± 9.8 | 
10 | CCC(=O)C(CC(C)N(C)C)(c1ccccc1)c1ccccc1 (centres unmarked) [Methadone] | 8.9 ± 4.4% | 68.7 ± 3.8% |  | 99.3 ± 0.3 | 
11 | CN(Cc1cnc2nc(N)nc(N)c2n1)c1ccc(C(=O)N[C@@H](CCC(=O)O)C(=O)O)cc1 [Methotrexate] | -19.0 ± 7.2% | -9.5 ± 3.0% | -1.1 ± 11.4 | -5.8 ± 13.0 | 
12 | COC(=O)C(c1ccccc1)C1CCCCN1 (centres unmarked) [Methylphenidate] |  |  | 17.9 ± 4.6 | 79.6 ± 2.3 | % Inhibition of OCT2-dependent MPP+ uptake at 20 µM (mean ± SEM) (OCT2 [1]; human, pH 7.3): 11.5 ± 8.9; % Inhibition of OCT2-dependent MPP+ uptake at 200 µM (mean ± SEM) (OCT2 [1]; human, pH 7.3): 31.6 ± 4.7
13 | CCN(CC)CCNC(=O)c1cc(Cl)c(N)cc1OC [Metoclopramide] | 24.5 ± 2.9% | 66.6 ± 8.4% | 74.7 ± 8.5 | 93.9 ± 0.6 | 
14 | COCCc1ccc(OCC(O)CNC(C)C)cc1 (centres unmarked) [Metoprolol] | 23.2 ± 6.5% | 27.5 ± 6.9% | 50.5 ± 5.9 | 88.2 ± 1.7 | 
15 | CN1CCN2c3ncccc3Cc3ccccc3C2C1 (centres unmarked) [Mirtazapine] | -4.8 ± 4.0% | 57.6 ± 6.1% | 73.3 ± 3.0 | 90.7 ± 3.9 | 
16 | O=C(NCCN1CCOCC1)c1ccc(Cl)cc1 [Moclobemide] | -38.7 ± 8.5% | -16.1 ± 17.7% | 4.3 ± 2.8 | 48.9 ± 2.1 | 
17 | CCOC(=O)[N-]c1cn(N2CCOCC2)n[o+]1 [Molsidomine] | -1.7 ± 8.3% | 3.8 ± 4.9% | 41.4 ± 3.6 | 69.5 ± 1.7 | 
18 | COc1nc(C)nc(Cl)c1N=C1NCCN1 [Moxonidine] |  |  |  |  | inhibition at 3 min, 20 µM (OCT2 [1]; human): 16.3 ± 6.5%; inhibition at 3 min, 200 µM (OCT2 [1]; human): 23.1 ± 7.1%; inhibition at 3 min, 20 µM (OCT2 [2]; human): 58.1 ± 14.5%; inhibition at 3 min, 200 µM (OCT2 [2]; human): 86.1 ± 2.9%
19 | OC(CNCC(O)C1CCc2cc(F)ccc2O1)C1CCc2cc(F)ccc2O1 (centres unmarked) [Nebivolol] | -13.7 ± 13.3% | 43.2 ± 3.3% | 61.4 ± 10.4 | 75.2 ± 10.8 | 
20 | CCOC(=O)C1=C(C)NC(C)=C(C(=O)OC)C1c1cccc([N+](=O)[O-])c1 (centres unmarked) [Nitrendipine] | 4.0 ± 6.3% | -2.4 ± 5.0% | 0.4 ± 9.8 | 53.2 ± 3.7 | 
21 | C#C[C@]1(O)CC[C@H]2[C@@H]3CCC4=CC(=O)CC[C@@H]4[C@H]3CC[C@@]21C [Norethindrone] | -29.4 ± 6.4% | 3.0 ± 3.3% | 41.0 ± 11.0 | 87.7 ± 6.1 | 
22 | Cc1cc2c(s1)Nc1ccccc1N=C2N1CCN(C)CC1 [Olanzapine] | 83.5 ± 9.4% | 109.7 ± 2.8% | -7.5 ± 5.7 | 74.9 ± 1.8 | % Inhibition of OCT2-dependent MPP+ uptake at 20 µM (mean ± SEM) (OCT2 [1]; test drug 20 µM, MPP+ 50 μM, 3 min, net uptake HEK-OCT2 minus HEK-VC, listed as olanzapine): most potent inhibitors
23 | CCCc1nc(C(C)(C)O)c(C(=O)O)n1Cc1ccc(-c2ccccc2-c2nnn[nH]2)cc1 [Olmesartan] |  |  |  |  | inhibition at 3 min, 20 µM (OCT2 [1]; human): -23.8 ± 7.1%; inhibition at 3 min, 200 µM (OCT2 [1]; human): -21.9 ± 13.3%; inhibition at 3 min, 20 µM (OCT2 [2]; human): -0.1 ± 10.9%; inhibition at 3 min, 200 µM (OCT2 [2]; human): 21.1 ± 7.3%
24 | OCCN1CCN(CCCN2c3ccccc3C=Cc3ccccc32)CC1 [Opipramol] | 14.0 ± 7.6% | 81.6 ± 3.9% |  | 99.5 ± 0.7 | 
25 | O=C1Nc2ccc(Cl)cc2C(c2ccccc2)=NC1O (centres unmarked) [Oxazepam] |  |  |  | 97.5 ± 0.5 | % Inhibition of OCT2-dependent MPP+ uptake at 20 µM (mean ± SEM) (OCT2 [1]; human, pH 7.3): 37.6 ± 4.7; % Inhibition of OCT2-dependent MPP+ uptake at 200 µM (mean ± SEM) (OCT2 [1]; human, pH 7.3): 44.6 ± 6.5
26 | Fc1ccc([C@@H]2CCNC[C@H]2COc2ccc3c(c2)OCO3)cc1 [Paroxetine] | 15.5 ± 3.8% | 87.2 ± 3.6% | 80.6 ± 3.1 | 99.6 ± 1.9 | 
27 | CN1CCN(CCCN2c3ccccc3Sc3ccccc32)CC1 [Perazine] | 58.5 ± 2.8% | 65.9 ± 2.0% | 53.6 ± 3.6 | 92.0 ± 1.8 | 
28 | NC(=O)C1(N2CCCCC2)CCN(CCCC(=O)c2ccc(F)cc2)CC1 [Pipamperone] | 12.0 ± 4.5% | 33.1 ± 3.4% | 33.9 ± 6.0 | 78.1 ± 2.2 | 
